Publication PMC9120017, “Inhibition mechanism of the chloride channel TMEM16A by the pore blocker 1PBC” (Nature Communications, 2022)
Like-named read-outs stand apart in the source and are kept apart here.

Biological target: T1, mouse TMEM16A mutant I516A (Mus musculus, UniProt Q8BHY3, I516A)
T1 construct: expressed in transfected cells; host or cells: HEK293T
T1 sequence (Q8BHY3 1-960 I516A): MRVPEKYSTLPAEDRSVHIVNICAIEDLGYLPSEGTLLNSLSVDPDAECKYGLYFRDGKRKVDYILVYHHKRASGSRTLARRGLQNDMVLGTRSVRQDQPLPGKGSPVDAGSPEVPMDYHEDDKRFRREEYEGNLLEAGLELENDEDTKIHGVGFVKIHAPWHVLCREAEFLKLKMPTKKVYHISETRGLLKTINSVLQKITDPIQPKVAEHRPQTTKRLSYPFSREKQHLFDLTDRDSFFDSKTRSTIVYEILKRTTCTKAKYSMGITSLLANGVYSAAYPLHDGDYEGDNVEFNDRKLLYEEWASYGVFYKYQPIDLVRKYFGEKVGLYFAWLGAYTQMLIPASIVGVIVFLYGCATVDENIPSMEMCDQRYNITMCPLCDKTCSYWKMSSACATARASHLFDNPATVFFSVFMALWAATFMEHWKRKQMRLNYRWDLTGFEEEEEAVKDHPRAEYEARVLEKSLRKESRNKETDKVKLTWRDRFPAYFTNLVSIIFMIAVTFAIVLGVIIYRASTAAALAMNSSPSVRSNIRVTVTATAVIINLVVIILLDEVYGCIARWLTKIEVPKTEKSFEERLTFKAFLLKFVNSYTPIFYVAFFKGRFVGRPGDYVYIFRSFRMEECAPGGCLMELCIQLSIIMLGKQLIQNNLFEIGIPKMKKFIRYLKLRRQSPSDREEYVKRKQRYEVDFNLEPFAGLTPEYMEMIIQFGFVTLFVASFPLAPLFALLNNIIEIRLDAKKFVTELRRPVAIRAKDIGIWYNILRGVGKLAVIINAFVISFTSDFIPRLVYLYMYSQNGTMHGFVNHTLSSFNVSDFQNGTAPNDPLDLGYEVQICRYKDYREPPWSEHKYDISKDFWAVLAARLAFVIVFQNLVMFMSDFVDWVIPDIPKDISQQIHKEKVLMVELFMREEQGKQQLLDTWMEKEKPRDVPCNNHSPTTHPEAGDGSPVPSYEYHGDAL
Assay: Inside-out patch recording of 1PBC block, mutant I516A
Format: cell-based
Conditions: for remaining activity at 1 µM: 1PBC 1; for remaining activity at 1 µM / remaining activity at 3 µM / remaining activity at 10 µM / remaining activity at 30 µM / remaining activity at 100 µM: read-out: fraction of unblocked current; for remaining activity at 3 µM: 1PBC 3; for remaining activity at 10 µM: 1PBC 10; for remaining activity at 30 µM: 1PBC 30; for remaining activity at 100 µM: 1PBC 100
Description: HEK293T cells (ATCC CRL-1573) were maintained in Dulbecco’s modified Eagle’s medium (DMEM; Sigma-Aldrich) supplemented with 10 U ml^−1 penicillin, 0.1 mg ml^−1 streptomycin (Sigma-Aldrich), 2 mM L-glutamine (Sigma-Aldrich), and 10% FBS (Sigma-Aldrich) in a humidified atmosphere containing 5% CO2 at 37 °C. HEK293S GnTI^− cells (ATCC CRL-3022) were maintained in HyClone HyCell TransFx-H medium (GE Healthcare) supplemented with 10 U ml^−1 penicillin, 0.1 mg ml^−1 streptomycin, 4 mM L-glutamine, 0.15% poloxamer 188 (Sigma-Aldrich), and 1% FBS in an atmosphere containing 5% CO2 at 185 rpm at 37 °C. The ac splice variant of mouse TMEM16A (UniProt ID: Q8BHY3), mouse TMEM16B (UniProt ID: Q8CFW1), or mouse TMEM16F (UniProt ID: Q6P9J9) bearing a 3C cleavage site, a Venus YFP, a Myc tag, and a Streptavidin-binding peptide (SBP) downstream of the open reading frame in a modified pcDNA3.1 vector (Invitrogen) were used as described previously[21],[31]. Mutations were introduced using a modified QuikChange method[58] and were verified by sequencing.
HEK293T cells were transfected with 3–4 μg DNA per 6 cm Petri dish using the calcium phosphate co-precipitation method and were used within 24–96 h after transfection. Recordings were performed on inside-out patches excised from HEK293T cells expressing the construct of interest. Patch pipettes were pulled from borosilicate glass capillaries (O.D. 1.5 mm, I.D. 0.86 mm, Sutter Instrument) and were fire-polished with a microforge (Narishige) before use. Pipette resistance was typically 3–8 MΩ when filled with the recording solutions detailed below. Seal resistance was typically 4 GΩ or higher. Voltage-clamp recordings were made using Axopatch 200B, Digidata 1550, and Clampex 10.7 (Molecular Devices). Analog signals were filtered with the in-built 4-pole Bessel filter at 10 kHz and were digitized at 20 kHz. Solution exchange was achieved using a gravity-fed system through a theta glass pipette mounted on an ultra-fast piezo-driven stepper (Siskiyou). […] All recordings were performed at 20 °C.
A symmetrical ionic condition was used throughout. Stock solution with Ca^2+-EGTA contained 150 mM NaCl, 5.99 mM Ca(OH)2, 5 mM EGTA, and 10 mM HEPES at pH 7.40. Stock solution with EGTA contained 150 mM NaCl, 5 mM EGTA, and 10 mM HEPES at pH 7.40. Free Ca^2+ concentrations were adjusted by mixing the stock solutions at the required ratios calculated using the WEBMAXC program (http://web.stanford.edu/~cpatton/webmaxcS.htm). Patch pipettes were filled with the stock solution with Ca^2+-EGTA, which has a free Ca^2+ concentration of 1 mM. 1PBC (ChemBridge) stock was reconstituted in anhydrous DMSO (Sigma-Aldrich) at 100 mM and stored at −20 °C. Working solutions with 1PBC were prepared by serial dilution. Unless otherwise stated, experiments were performed at a saturating Ca^2+ concentration as shown in Supplementary Table 1 and the primary data were corrected for current rundown as described previously[21],[25].
Concentration-response relations, obtained from the ratio of the I-V plots before and after the application of the blocker, were fitted to the Hill equation,1 I/Imax=1/1+IC50/[blocker]^h where I/Imax is the normalized current responses, IC50 defines the concentration at which inhibition is at its half-maximum, and h is the Hill coefficient.

For `N#Cc1c(C(F)(F)F)cc(O)n2c1nc1ccccc12` [1PBC], the IC50 (0 mV, 2 µM Ca2+) was 5.69 µM, the remaining activity at 1 µM (0 mV) was 81.6% and the remaining activity at 1 µM (20 mV) was 79%. The remaining activity at 1 µM (40 mV) was 76.3%, the remaining activity at 1 µM (60 mV) was 76.1% and the remaining activity at 1 µM (80 mV) was 76%. The remaining activity at 1 µM (100 mV) was 78.2%, the remaining activity at 1 µM (120 mV) was 80.5% and the remaining activity at 1 µM (140 mV) was 85%. It also gave a remaining activity at 1 µM (-20 mV) of 84.2%, a remaining activity at 1 µM (-40 mV) of 86.9% and a remaining activity at 1 µM (-60 mV) of 90.5%. The remaining activity at 1 µM (-80 mV) was 93.4%, the remaining activity at 1 µM (-100 mV) was 94.6% and the remaining activity at 1 µM (-120 mV) was 96.7%. For the same compound, the remaining activity at 1 µM (-140 mV) was 99.6%, the remaining activity at 3 µM (0 mV) was 66.1% and the remaining activity at 3 µM (20 mV) was 63.1%. The remaining activity at 3 µM (40 mV) was 60.5%, the remaining activity at 3 µM (60 mV) was 57.3% and the remaining activity at 3 µM (80 mV) was 57.5%. The remaining activity at 3 µM (100 mV) was 58.7%, the remaining activity at 3 µM (120 mV) was 60.2% and the remaining activity at 3 µM (140 mV) was 62.8%. For the same compound, the remaining activity at 3 µM (-20 mV) was 69.1%, the remaining activity at 3 µM (-40 mV) was 74.1% and the remaining activity at 3 µM (-60 mV) was 78.3%. For the same compound, the remaining activity at 3 µM (-80 mV) was 81.5%, the remaining activity at 3 µM (-100 mV) was 84.3% and the remaining activity at 3 µM (-120 mV) was 86.9%. For the same compound, the remaining activity at 3 µM (-140 mV) was 88%, the remaining activity at 10 µM (0 mV) was 37.2% and the remaining activity at 10 µM (20 mV) was 33.9%. The remaining activity at 10 µM (40 mV) was 31.3%, the remaining activity at 10 µM (60 mV) was 30.4% and the remaining activity at 10 µM (80 mV) was 30.4%. For the same compound, the remaining activity at 10 µM (100 mV) was 30.4%, the remaining activity at 10 µM (120 mV) was 31.9% and the remaining activity at 10 µM (140 mV) was 35.1%. For the same compound, the remaining activity at 10 µM (-20 mV) was 40.4%, the remaining activity at 10 µM (-40 mV) was 43.9% and the remaining activity at 10 µM (-60 mV) was 48.6%. It also gave a remaining activity at 10 µM (-80 mV) of 50.8%, a remaining activity at 10 µM (-100 mV) of 55.1% and a remaining activity at 10 µM (-120 mV) of 58%. The remaining activity at 10 µM (-140 mV) was 60.3%, the remaining activity at 30 µM (0 mV) was 16.3% and the remaining activity at 30 µM (20 mV) was 15%. The remaining activity at 30 µM (40 mV) was 13.7%, the remaining activity at 30 µM (60 mV) was 12.5% and the remaining activity at 30 µM (80 mV) was 12.7%. For the same compound, the remaining activity at 30 µM (100 mV) was 13.1%, the remaining activity at 30 µM (120 mV) was 14.6% and the remaining activity at 30 µM (140 mV) was 16.7%. The remaining activity at 30 µM (-20 mV) was 17.7%, the remaining activity at 30 µM (-40 mV) was 19.9% and the remaining activity at 30 µM (-60 mV) was 22.8%. It also gave a remaining activity at 30 µM (-80 mV) of 25.3%, a remaining activity at 30 µM (-100 mV) of 28% and a remaining activity at 30 µM (-120 mV) of 31.5%. It also gave a remaining activity at 30 µM (-140 mV) of 34.4%, a remaining activity at 100 µM (0 mV) of 6.15% and a remaining activity at 100 µM (20 mV) of 5.12%. For the same compound, the remaining activity at 100 µM (40 mV) was 5.16%, the remaining activity at 100 µM (60 mV) was 5.16% and the remaining activity at 100 µM (80 mV) was 5.57%. It also gave a remaining activity at 100 µM (100 mV) of 6.35%, a remaining activity at 100 µM (120 mV) of 6.87% and a remaining activity at 100 µM (140 mV) of 7.57%. It also gave a remaining activity at 100 µM (-20 mV) of 7.18%, a remaining activity at 100 µM (-40 mV) of 7.63% and a remaining activity at 100 µM (-60 mV) of 9.24%. The remaining activity at 100 µM (-80 mV) was 10.6%, the remaining activity at 100 µM (-100 mV) was 12.4% and the remaining activity at 100 µM (-120 mV) was 14.7%. The remaining activity at 100 µM (-140 mV) was 17.2%, the IC50 (20 mV, 2 µM Ca2+) was 4.91 µM and the IC50 (40 mV, 2 µM Ca2+) was 4.32 µM. The IC50 (60 mV, 2 µM Ca2+) was 3.97 µM, the “log-fold IC50 (change of mutant vs WT)” value (80 mV) was 0.3402 and the IC50 (80 mV, 2 µM Ca2+) was 4 µM. It also gave an IC50 (100 mV, 2 µM Ca2+) of 4.22 µM, an IC50 (120 mV, 2 µM Ca2+) of 4.6 µM and an IC50 (140 mV, 2 µM Ca2+) of 5.41 µM. It also gave an IC50 (-20 mV, 2 µM Ca2+) of 6.57 µM, an IC50 (-40 mV, 2 µM Ca2+) of 7.87 µM and an IC50 (-60 mV, 2 µM Ca2+) of 9.65 µM. It also gave an IC50 (-80 mV, 2 µM Ca2+) of 11 µM, an IC50 (-100 mV, 2 µM Ca2+) of 12.9 µM and an IC50 (-120 mV, 2 µM Ca2+) of 15 µM. For the same compound, the IC50 (-140 mV, 2 µM Ca2+) was 17 µM, the IC50 (I516A, V 0 mV) was 5.69 µM and the IC50 (I516A, V 20 mV) was 4.91 µM. It also gave an IC50 (I516A, V 40 mV) of 4.32 µM, an IC50 (I516A, V 60 mV) of 3.97 µM and an IC50 (I516A, V 80 mV) of 4 µM. For the same compound, the IC50 (I516A, V 100 mV) was 4.22 µM, the IC50 (I516A, V 120 mV) was 4.6 µM and the IC50 (I516A, V 140 mV) was 5.41 µM. The IC50 (I516A, V -20 mV) was 6.57 µM, the IC50 (I516A, V -40 mV) was 7.87 µM and the IC50 (I516A, V -60 mV) was 9.65 µM. The IC50 (I516A, V -80 mV) was 11 µM, the IC50 (I516A, V -100 mV) was 12.9 µM and the IC50 (I516A, V -120 mV) was 15 µM. It also gave an IC50 (I516A, V -140 mV) of 17 µM.
